Reference: paper PMC2212779 (The Journal of Experimental Medicine, 2005)
Ends that are not written are not given here.

Columns and labels:
H-2K^b = H-2K^b (Mus musculus, UniProt P01901); assay: biochemical; type: binding
H-2D^b = H-2D^b (Mus musculus, UniProt P01899); settings: read-out: average IC50 of the radiolabeled standard peptide; cited from earlier work
Chain of H-2D^b (P01899 25-362): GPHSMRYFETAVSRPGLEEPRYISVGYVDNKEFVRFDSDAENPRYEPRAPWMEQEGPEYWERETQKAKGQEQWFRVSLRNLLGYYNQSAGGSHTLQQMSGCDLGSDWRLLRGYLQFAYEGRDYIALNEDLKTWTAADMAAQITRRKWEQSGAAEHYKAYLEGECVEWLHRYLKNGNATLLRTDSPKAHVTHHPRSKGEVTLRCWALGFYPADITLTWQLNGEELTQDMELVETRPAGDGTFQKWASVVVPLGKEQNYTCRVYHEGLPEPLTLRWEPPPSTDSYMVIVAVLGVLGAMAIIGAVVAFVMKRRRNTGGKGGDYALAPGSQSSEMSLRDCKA
Chain of H-2D^b (P61769 21-119, further chain): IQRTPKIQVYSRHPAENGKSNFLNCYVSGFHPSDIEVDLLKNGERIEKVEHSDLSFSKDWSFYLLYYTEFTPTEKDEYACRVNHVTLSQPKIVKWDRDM

Chain of H-2K^b (P01901 22-369): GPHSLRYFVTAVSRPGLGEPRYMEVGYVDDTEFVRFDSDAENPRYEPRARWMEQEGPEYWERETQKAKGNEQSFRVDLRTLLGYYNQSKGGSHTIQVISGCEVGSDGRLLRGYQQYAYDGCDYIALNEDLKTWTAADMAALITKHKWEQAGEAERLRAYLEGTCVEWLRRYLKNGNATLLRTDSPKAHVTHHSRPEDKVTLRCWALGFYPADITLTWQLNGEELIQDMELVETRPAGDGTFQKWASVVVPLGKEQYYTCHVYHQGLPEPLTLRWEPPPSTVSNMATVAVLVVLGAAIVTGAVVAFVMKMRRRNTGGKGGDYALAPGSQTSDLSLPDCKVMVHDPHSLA
Chain of H-2K^b (P61769 21-119, further chain): as the sequence (P61769 21-119, further chain) above

Sequence | IC50 (H-2K^b) [µM] | IC50 (H-2D^b) [µM]
ISLKNYGI [ISLKNYGI] | 0.016 | 
KVEEYCTGL [KVEEYCTGL] | 0.129 | 
LAVLFINSI [LAVLFINSI] | 0.028 | 
SGPSNTYPEI |  | 0.0044
TSYKFESV [B8R20-27] | 0.00019 | 
WQTMYTNV [WQTMYTNV] | 0.0066 | 
